Data reported in patent publication US20090325959A1 (priority 2008, published 2009).
Like-named read-outs stand apart in the source and are kept apart here.

Experiments:
[1] = target: T1, ROCK2 (Homo sapiens, UniProt O75116); test: Rho kinase inhibition assay (IMAP fluorescence polarization), ROCK2; format: biochemical;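 also: kinase reaction started with 10 µM ATP and run 60 min at room temperature, then phosphorylated substrate captured on IMAP beads for 30 min and fluorescence polarization read in mP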
T1 construct: purchased Upstate/Chemicon 14-451
Procedure: (§1) Following the pre-incubation, 10 μM ATP was added to initiate the reaction. After 60 minutes at room temperature, Molecular Devices IMAP™ binding solution was added to bind phosphorylated substrate. After 30 minutes of incubation in the presence of the IMAP™ beads, the fluorescence polarization was read and the ratio was reported as mP. IC50 values for compounds and EC50 values for ATP were calculated using the Prism software from Graphpad.

[2] = target: T2, ROCK1 (Homo sapiens, UniProt Q13464); test: Rho kinase inhibition assay (IMAP fluorescence polarization), ROCK1; format: biochemical;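 also: kinase reaction run 60 min at room temperature, then phosphorylated substrate captured on IMAP beads for 30 min, with fluorescence polarization read in mP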
T2 construct: purchased Upstate/Chemicon 14-601
Procedure: as §1

[3] = 10 μM ATP, read-out: ROCK2 Ki, Avg

T2 sequence (Q13464 17-535 limits assumed): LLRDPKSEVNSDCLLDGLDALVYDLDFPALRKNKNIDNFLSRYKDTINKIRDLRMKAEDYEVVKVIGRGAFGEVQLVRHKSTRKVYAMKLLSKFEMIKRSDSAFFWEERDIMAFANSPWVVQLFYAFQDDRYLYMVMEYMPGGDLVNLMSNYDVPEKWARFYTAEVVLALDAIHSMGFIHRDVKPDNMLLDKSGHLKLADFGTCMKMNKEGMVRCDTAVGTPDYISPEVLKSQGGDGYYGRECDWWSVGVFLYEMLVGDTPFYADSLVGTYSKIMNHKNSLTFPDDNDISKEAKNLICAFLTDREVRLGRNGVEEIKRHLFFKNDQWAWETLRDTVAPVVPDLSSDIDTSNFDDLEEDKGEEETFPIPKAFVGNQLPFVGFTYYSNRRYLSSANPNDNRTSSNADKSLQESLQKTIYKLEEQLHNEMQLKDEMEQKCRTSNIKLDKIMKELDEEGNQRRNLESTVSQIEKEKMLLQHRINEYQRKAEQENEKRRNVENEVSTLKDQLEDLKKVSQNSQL
T1 sequence (O75116 11-552 limits assumed): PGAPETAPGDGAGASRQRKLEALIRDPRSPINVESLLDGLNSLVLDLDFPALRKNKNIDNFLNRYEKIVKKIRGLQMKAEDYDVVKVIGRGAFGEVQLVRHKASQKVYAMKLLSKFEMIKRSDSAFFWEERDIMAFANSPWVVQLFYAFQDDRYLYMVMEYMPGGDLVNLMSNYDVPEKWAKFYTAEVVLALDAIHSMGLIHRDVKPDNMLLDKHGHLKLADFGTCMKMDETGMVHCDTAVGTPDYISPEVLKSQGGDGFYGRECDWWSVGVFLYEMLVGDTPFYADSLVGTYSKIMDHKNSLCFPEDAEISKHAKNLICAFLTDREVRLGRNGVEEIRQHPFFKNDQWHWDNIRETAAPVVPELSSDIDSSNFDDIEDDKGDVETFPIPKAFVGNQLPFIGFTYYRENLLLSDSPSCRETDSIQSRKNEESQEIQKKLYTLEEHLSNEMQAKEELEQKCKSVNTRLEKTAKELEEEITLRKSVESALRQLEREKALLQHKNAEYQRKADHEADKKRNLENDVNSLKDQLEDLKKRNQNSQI

Row | Compound | Ki [1, 3] [nM] | Ki ([2]; Avg, 10 μM ATP) [nM] | Ki ([1]; average Ki, read-out: ROCK2 Ki) [nM] | Ki ([2]; average Ki) [nM]
1 | Cc1nc(CN2CCC[C@H](Nc3ccc4[nH]ncc4c3)C2)c(C)o1 [Compound 1.279, (S)-N-(1-((2,5-dimethyloxazol-4-yl)methyl)piperidin-3-yl)-1H-indazol-5-amine] | 34.2 | 456 |  | 
2 | N#Cc1cccc(CN2CCC(Nc3cccc4cnccc34)C2)c1 (stereo not drawn) [Compound 2.007, 3-((3-(isoquinolin-5-ylamino)pyrrolidin-1-yl)methyl)benzonitrile] | 179 | 390 |  | 
3 | c1c[nH]c(CN2CCC[C@H](Nc3ccc4[nH]ncc4c3)C2)n1 [Compound 1.256, (S)-N-(1-((1H-imidazol-2-yl)methyl)piperidin-3-yl)-1H-indazol-5-amine] | 85.5 | 700 |  | 
4 | CC(=O)NCCOc1cccc(CN2CCC[C@@H](Nc3ccc4[nH]ncc4c3)C2)c1 [Compound 1.211, (R)-N-(2-(3-((3-(1H-indazol-5-ylamino)piperidin-1-yl)methyl)phenoxy)ethyl)acetamide] | 57.6 | 395 |  | 
5 | CS(=O)(=O)N1CCCc2cc(CN3CC[C@@H](Nc4cccc5cnccc45)C3)ccc21 [Compound 2.070, (R)-N-(1-((1-(methylsulfonyl)-1,2,3,4-tetrahydroquinolin-6-yl)methyl)pyrrolidin-3-yl)isoquinolin-5-amine] | 48.4 | 286 |  | 
6 | NS(=O)(=O)c1ccc2nc(CN3CC[C@@H](Nc4cccc5cnccc45)C3)[nH]c2c1 [Compound 2.087, (R)-2-((3-(isoquinolin-5-ylamino)pyrrolidin-1-yl)methyl)-1H-benzo[d]imidazole-6-sulfonamide] | 59.3 | 896 |  | 
7 | c1cc(N[C@@H]2CCN(Cc3ccncn3)C2)c2ccncc2c1 [Compound 2.083, (R)-N-(1-(pyrimidin-4-ylmethyl)pyrrolidin-3-yl)isoquinolin-5-amine] | 858 | 1880 |  | 
8 | CCOC(=O)c1ccc(CN2CCC[C@@H](Nc3ccc4[nH]ncc4c3)C2)cc1 [Compound 1.209, (R)-ethyl 4-((3-(1H-indazol-5-ylamino)piperidin-1-yl)methyl)benzoate] | 470 | 4590 |  | 
9 | O=C(O)COc1cccc(CN2CC[C@@H](Nc3cccc4cnccc34)C2)c1 [Compound 2.044, (R)-2-(3-((3-(isoquinolin-5-ylamino)pyrrolidin-1-yl)methyl)phenoxy)acetic acid] | 24.1 | 81.4 |  | 
10 | Cc1cccc(CN2CCC[C@@H](Nc3ccc4[nH]ncc4c3)C2)c1C [Compound 1.172, (R)-N-(1-(2,3-dimethylbenzyl)piperidin-3-yl)-1H-indazol-5-amine] | 20.5 | 103 |  | 
11 | CCOC(=O)COc1cccc(CN2CCC[C@@H](Nc3ccc4[nH]ncc4c3)C2)c1 [Compound 1.147, (R)-ethyl 2-(3-((3-(1H-indazol-5-ylamino)piperidin-1-yl)methyl)phenoxy)acetate] | 45.7 | 58.3 |  | 
12 | c1ccc(Cn2ccnc2CN2CCC[C@@H](Nc3ccc4[nH]ncc4c3)C2)cc1 [Compound 1.263, (R)-N-(1-((1-benzyl-1H-imidazol-2-yl)methyl)piperidin-3-yl)-1H-indazol-5-amine] | 453 | 2130 |  | 
13 | O=C(OCCOc1cccc(CN2CCC[C@@H](Nc3ccc4[nH]ncc4c3)C2)c1)c1ccccc1 [Compound 1.225, (R)-2-(3-((3-(1H-indazol-5-ylamino)piperidin-1-yl)methyl)phenoxy)ethyl benzoate] | 189 | 605 |  | 
14 | c1cc(CN2CCC[C@@H](Nc3ccc4[nH]ncc4c3)C2)cc(C2CC2)c1 [Compound 1.202, (R)-N-(1-(3-cyclopropylbenzyl)piperidin-3-yl)-1H-indazol-5-amine] | 33 | 203 |  | 
15 | Cc1ccc(CN2CC[C@@H](Nc3ccc4[nH]ncc4c3)C2)cc1 [Compound 1.242, (R)-N-(1-(4-methylbenzyl)pyrrolidin-3-yl)-1H-indazol-5-amine] | 17.5 | 71.4 |  | 
16 | NCc1cccc(CN2CCC[C@@H](Nc3ccc4[nH]ncc4c3)C2)c1 [Compound 1.235, (R)-N-(1-(3-(aminomethyl)benzyl)piperidin-3-yl)-1H-indazol-5-amine] | 335 | 1390 |  | 
17 | c1cc(N[C@@H]2CCN(Cc3cncnc3)C2)c2ccncc2c1 [Compound 2.084, (R)-N-(1-(pyrimidin-5-ylmethyl)pyrrolidin-3-yl)isoquinolin-5-amine] | 350 | 1170 |  | 
18 | c1ccc(Cn2cc(CN3CCC[C@@H](Nc4ccc5[nH]ncc5c4)C3)c3ccccc32)cc1 [Compound 1.271, (R)-N-(11-((1-benzyl-1H-indol-3-yl)methyl)piperidin-3-yl)-1H-indazol-5-amine] | 77.7 | 332 |  | 
19 | OCC1COc2ccc(CN3CCC[C@@H](Nc4ccc5[nH]ncc5c4)C3)cc2O1 (stereo partly drawn) [Compound 1.264, (7-(((R)-3-(1H-indazol-5-ylamino)piperidin-1-yl)methyl)-2,3-dihydrobenzo[b][1,4]dioxin-2-yl)methanol] | 59.4 | 494 |  | 
20 | CS(=O)(=O)Cc1cccc(CN2CCC[C@@H](Nc3ccc4[nH]ncc4c3)C2)c1 [Compound 1.139, (R)-N-(1-(3-(methylsuifonylmethyl)benzyl)piperidin-3-yl)-1H-indazol-5-amine] | 23.2 | 200 |  | 
21 | CC(=O)NCc1cccc(CN2CCC[C@@H](Nc3ccc4[nH]ncc4c3)C2)c1 [Compound 1.194] | 20.2 | 176 |  | 
22 | O=S(=O)(Nc1cccc(CN2CC[C@@H](Nc3cccc4cnccc34)C2)c1)N1CCCCC1 [Compound 2.069, (R)-N-(3-((3-(isoquinolin-5-ylamino)pyrrolidin-1-yl)methyl)phenyl)piperidine-1-sulfonamide] | 2.4 | 16.7 | 2.4 | 16.7
23 | Fc1ccc(CN2CC[C@@H](Nc3cccc4cnccc34)C2)cc1F [Compound 2.062, (R)-N-(1-(3,4-difluorobenzyl)pyrrolidin-3-yl)isoquinolin-5-amine] | 30.5 | 63.4 |  | 
24 | OC[C@@H](O)COc1cccc(CN2CCC[C@@H](Nc3ccc4[nH]ncc4c3)C2)c1 [Compound 1.115, (R)-3-(3-(((R)-3-(1H-indazol-5-ylamino)piperidin-1-yl)methyl)phenoxy)propane-1,2-diol] | 20.6 | 89.7 |  | 
25 | CSc1nccc(CN2CC[C@@H](Nc3cccc4cnccc34)C2)n1 [Compound 2.082, (R)-N-(1-((2-(methylthio)pyrimidin-4-yl)methyl)pyrrolidin-3-yl)isoquinolin-5-amine] | 9 | 132 | 9 | 132
26 | CS(=O)(=O)Nc1cccc(CN2CCC[C@H](Nc3cccc4cnccc34)C2)c1 [Compound 2.037, (S)-N-(3-((3-(isoquinolin-5-ylamino)piperidin-1-yl)methyl)phenyl)methanesulfonamide] | 182 | 921 |  | 
27 | NC(=O)COc1cccc(CN2CC[C@@H](Nc3cccc4cnccc34)C2)c1 [Compound 2.040, (R)-2-(3-((3-(isoquinolin-5-ylamino)pyrrolidin-1-yl)methyl)phenoxy)acetamide] | 25.4 | 59.6 |  | 
28 | O=C(O)COc1cccc(CN2CCC[C@H](Nc3ccc4[nH]ncc4c3)C2)c1 [Compound 1.196, (S)-2-(3-((3-(1H-indazol-5-ylamino)piperidin-1-yl)methyl)phenoxy)acetic acid] | 39.8 | 711 |  | 
